Converted amounts (≈) assume the structure as drawn. Structures can show the parent of a compound that is named as a salt.

In general, solubility refers to the dissolved amount per volume that the medium holds. As a reminder, the aqueous solubility is how much of the substance goes into solution per volume.

The nature of data set [1]: pKa and oil/water partition of indomethacin. The data set is classed as physicochemical.
The next data set relates to injected muscle. As to the kind of experiment: IM injection of albendazole sulfoxide preparations in rats. The data set is classed as in vivo, rat. Particulars: versus albendazole. How it is done:
The above experimentation was repeated with albendazole sulfoxide, a more water-soluble analogue of the drug. […] Solubility data for albendazole sulfoxide are: 0.42 mg/ml in water, 17.7 mg/ml in propylene glycol and 179.0 mg/ml in ethanol. […] Both preparations normally settled to albendazole sulfoxide concentrations of 20% (w/v). Samples (0.1 ml) of both preparations were injected IM in rats (n=6) and the muscles were examined at necropsy, 2 days post-injection. […] Propylene glycol, which has two OH groups and a dielectric constant of 32, is an example of a polar organic compound which can be substituted for water.

Another data set has as its system human skin. Description: Pin prick anesthesia after intradermal injection, human self-experimentation. Particulars: in vivo. As to the method:
The Inventor carried out self-experimentation with Preparation B. I made two intradermal injections of 0.15 ml of Preparation B into the skin of my calf, right leg, inside, at sites 12 cm and 22 cm below the knee. The injections raised weals approx. 1.1 cm in diameter. […] The weals subsided within ca. 30 sec. The injected sites were tested for pin prick and cold stimulus anesthesia for the next 24 hr.
As a control for the above, I injected myself with 0.15 ml volumes of solutions of 1%, 2% and 5% tetracaine-H-Cl. In attempt to make the concentrated solutions less damaging, the pH was adjusted from 5.3 to 6.5. Physiological tonicity was maintained by including glucose (4.3%, 3.2% and 0%, respectively). […] The 1% and 2% tetracaine-H-Cl solutions produced only mild erthrema, with return to normal color when the anesthesia subsided. […] The presented anesthesia values were taken at its periphery. […] This poor outcome with the 5% (w/v) tetracaine solution is in stark contrast to the excellent results obtained with the 20% (w/v) tetracaine-H-I microcrystal.

A further data set deals with surgical wounds. Particulars: crystals sprinkled into surgical wounds; cited from earlier work.
The conditions of data set [2]: water.
The conditions of data set [3]: IV injection; cited from earlier work.

For the molecule `O=C1CN(/N=C/c2ccc(-c3ccc([N+](=O)[O-])cc3)o2)C(O)=N1` [Dantrolene], the “dissolution in organic solvents” value in the data set “Solubility” (7.9 mg in mineral oil, n-dibutyl ether, methoxyflurane) was “did not dissolve”.

For the molecule `COc1ccc2c(c1)c(CC(=O)O)c(C)n2C(=O)c1ccc(Cl)cc1` [Indomethacin], the oil/water partition coefficient in data set [1] (olive oil/water) is reported as 55/1; in data set [1] (pentanol/water), 85/1. The solubility was 30000 µg/mL (≈ 83800 µM) in the data set “Solubility” (pH 9.6) and 376 µg/mL (≈ 1050 µM) in “Solubility” (water, pH 7, water).

`CN(C)[C@@H]1C(=O)C(C(N)=O)=C(O)[C@@]2(O)C(=O)C3=C(O)c4c(O)cccc4[C@@](C)(O)[C@H]3[C@H](O)[C@@H]12` [OTC, oxytetracycline] registered a solubility in the data set “physchem” (water, aqueous solubility) of roughly 1000 µg/mL (≈ 2170 µM).

Regarding `CCC[S+]([O-])c1ccc2[nH]c(NC(=O)OC)nc2c1` (stereo not shown) [albendazole sulfoxide], in the data set with injected muscle, the “rate of absorption into the blood” value is recorded as “Faster rates of absorption into the blood”. For the same molecule, the solubility stood at 179000 µg/mL (≈ 636000 µM) in the data set “physchem” (ethanol, organic solvent or mixture, solubility, in ethanol); 17700 µg/mL (≈ 62900 µM) in “physchem” (propylene glycol, organic solvent or mixture, solubility, in propylene glycol); 420 µg/mL (≈ 1490 µM) in “physchem” (water, aqueous solubility).

In the data set “physchem” (water, aqueous solubility), `CCCSc1ccc2nc(NC(=O)OC)[nH]c2c1` [albendazole] yielded a solubility of less than 100 µg/mL.

The molecule `CC[C@H]1OC(=O)[C@H](C)[C@@H](O[C@H]2C[C@@](C)(OC)[C@@H](O)[C@H](C)O2)[C@H](C)[C@@H](O[C@@H]2O[C@H](C)C[C@H](N(C)C)[C@H]2O)[C@](C)(O)C[C@@H](C)C(=O)[C@H](C)[C@@H](O)[C@]1(C)O` [erythromycin] came in with a solubility in the data set “physchem” (water) of 2000 µg/mL (≈ 2730 µM).

In the case of `CCCCNc1ccc(C(=O)OCCN(C)C)cc1` [hydroiodic acid (HI) salt of tetracaine, tetracaine-H-I], the “extension of duration of action” value in the data set with human skin is 5 -fold. Further, in the data set with surgical wounds, the “duration of local anesthesia” value is 45 h.

The molecule `CN(C)[C@@H]1C(=O)C(C(N)=O)=C(O)[C@@]2(O)C(=O)C3=C(O)c4c(O)cccc4[C@@](C)(O)[C@H]3[C@H](O)[C@@H]12` [oxytetracycline] yielded an aqueous solubility in data set [2] of 1100 µg/mL (≈ 2390 µM).

For the molecule `CCCC(C)C1(CC)C(=O)NC(=S)NC1=O` (stereo not shown) [thiopental], the listed adverse reactions entry in data set [3] is recorded as “venous thrombosis or phlebitis extending from the site of injection”.

The record behind these values is US5091187A, “Phospholipid-coated microcrystals: injectable formulations of water-insoluble drugs” (priority 1991, dated 1992).
